Measurements taken from US12220393B2, “Compositions and methods for the treatment of zika viral diseases” (The ProImmune Company LLC, priority 2017, dated 2025).

Key:
Zika virus [1] = experiment: Quantification of Zika virus titers in infected Vero cells; type: cell-based; details: BSO 200 μM, MOI 0.1
Method: (§1) FIGS. 4A and 4B show effect of FFAAP on total intracellular GSH and Zika virus replication in Zika virus infected Vero cells (ZIKV). Vero cells, grown to approximately 90-95% confluence (mid-log phase), were treated with and grown in the presence of increasing concentrations of FFAAP for 3 days. At each time point, medium was discarded and cells were harvested to measure intracellular concentrations of total GSH. […] All experiments shown were performed in triplicates and the data shown are representative data from multiple independent experiments. Standard error bars were calculated using Microsoft Excel and significance assessments were performed using GRAPHPAD PRISM. * indicates a p-value <0.05 and >0.01; ** indicates a p-value <0.01 and >0.001; and *** indicates a p-value <0.001.
(§2) FIG. 5A-5D show effects of inhibition of glutathione biosynthesis on Zika virus replication in Vero cells. […] Standard error bars were calculated using Microsoft Excel and significance assessments were performed using GRAPHPAD PRISM. * indicates a p-value <0.05 and >0.01; ** indicates a p-value <0.01 and >0.001; and *** indicates a p-value <0.001.
FFAAP treatment of cells. […] Cells infected with Zika virus were treated with the above concentration 1.5 hours post adsorption for quantification of virus titers. […]

Zika virus [2] = experiment: Quantification of Zika virus titers in infected JEG-3 cells; type: cell-based; details: BSO 200 μM
Method: (§3) FIGS. 6A-6D show effects of inhibition of glutathione biosynthesis on Zika virus replication in JEG-3 cells. […] All experiments were performed in triplicates and the data shown are representative data from multiple independent experiments. Standard error bars were calculated using Microsoft Excel and significance assessments were performed using GRAPHPAD PRISM. * indicates a p-value <0.05 and >0.01; ** indicates a p-value <0.01 and >0.001; and *** indicates a p-value <0.001.
FFAAP treatment of cells. […] Cells infected with Zika virus were treated with the above concentration 1.5 hours post adsorption for quantification of virus titers. For plaque enumeration assay cells were treated with FFAAP at the time of adsorption and the treatment was continued for 3 days in semi-solid medium. For these assays the final concentrations in the cell culture medium of the infected and uninfected cells were 0, 2.5, 5.0, and 10 mM FFAAP from solubilized stock solution prepared for FFAAP. Inhibitory concentration (IC50) was used as per definitions provided by GRAPHPAD Software) to evaluate dose-response curves.
Approximately 95% sub-confluent Vero cells or JEG-3 cells were infected Zika in a 48-well plate. After 1.5 hours post-adsorption (HPA), virus inoculum was removed and media with or without FFAAP was added to the respective wells. […]

[3] = tested on: total intracellular glutathione (GSH+GSSG); experiment: Total intracellular glutathione in uninfected Vero cells; type: cell-based, African green monkey (Chlorocebus sp.); details: BSO treatment, initial studies
Method: African green monkey (Chlorocebus sp.) Vero cells, grown to approximately 90-95% confluence (mid-log phase), were treated with and grown in the presence of increasing concentrations of FFAAP for three days. At each time point, medium was discarded and cells were harvested to measure intracellular concentrations of total GSH. All experiments shown were done in triplicate and the data shown are representative data from multiple independent experiments performed. Standard error bars were calculated using MICROSOFT EXCEL and significance assessments were performed using GRAPHPAD PRISM. * indicates a p-value <0.05 and >0.01; ** indicates a p-value <0.01 and >0.001; and *** indicates a p-value <0.001.
Uninfected Vero cells were treated with 0, 2, 4, 6 mM concentrations of free-form amino acid precursors (FFAAP) for 72 hours. Vero cells infected with Zika virus were treated with the above concentration immediately for quantification of virus titers. […]
(§4) Glutathione Precursors and Glutathione Assays. […] Effective blockade was assessed by measurements of intracellular reduced and oxidized glutathione in the presence of inhibitor.
To determine the levels of intracellular glutathione in uninfected cells, FFAAP-treated and untreated cells, we quantified GSH/GSSG levels in each cell line over three days. Growth and viability of the cells were also assessed. […]

[4] = tested on: total intracellular glutathione; experiment: Total intracellular glutathione in Zika virus infected Vero cells; type: cell-based, African green monkey (Chlorocebus sp.); details: by 48 hours post BSO-treatment
Method: as §1, §2, §4

[5] = tested on: intracellular glutathione; experiment: Intracellular glutathione in JEG-3 cells; type: cell-based, human
Method: as §3
FIGS. 7A-F show total intracellular GSH concentrations in various cells that were treated with BSO, FFAAP, and a combination of BSO and FFAAP at day 0 and day 2. FIGS. 7A-7C show intracellular GSH concentration in African green monkey (Chlorocebus sp.) Vero cells. […]
Glutathione Precursors and Glutathione Assays. […] Intracellular glutathione levels (GSSG/GSH) were measured to quantify the levels of newly biosynthesized intracellular glutathione with molar quantities calculated using standard curves prepared with reduced and oxidized glutathione (Enzo Life Sciences, Farmingdale, NY), Standard error of the mean (SEM) was calculated using values from triplicate samples and coefficient of variance was calculated within each sample for each specific treatment group. […] Effective blockade was assessed by measurements of intracellular reduced and oxidized glutathione in the presence of inhibitor.

SMILES: CCCCS(=N)(=O)CC[C@H](N)C(=O)O (stereo partly drawn) [BSO, buthionine-(S,R)-sulfoximine]
- Zika virus replication in Vero cells treated with BSO (Zika virus [1]): Zika virus replicates even in Vero cells treated with BSO
- Zika virus replication on blockage of glutathione biosynthesis (Zika virus [2]): inhibition of Zika virus replication
- intracellular glutathione levels [3]: undetectable levels
- intracellular levels of glutathione [4]: undetectable
- intracellular glutathione levels ([5]; JEG-3 cells, BSO treatment, initial studies): undetectable levels
- intracellular GSH synthesis ([5]; Zika virus infected JEG-3 cells): blocked intracellular GSH synthesis
